Experimental findings from ChEMBL document CHEMBL3997846, “Synthesis and activity of nucleoside-based antiprotozoan compounds” (Bioorg Med Chem, 2017) are described below.

For data set [1], the system named is L6. Description: Cytotoxicity against rat L6 cells assessed as growth inhibition after 72 hrs by alamar blue assay. To be noted: L6, 72 h. The class given is cell-based. (Resazurin is reduced to fluorescent resorufin, in cell work by metabolically active cells.)
The subject of data set [2] is Trypanosoma brucei rhodesiense. In words: Antitrypanosomal activity against bloodstream forms of Trypanosoma brucei rhodesiense STIB900 trypomastigotes after 72 hrs by alamar blue assay. Format: functional. To be noted: STIB900, 72 h.
A short description of data set [3]: Selectivity index, ratio of IC50 for rat L6 cells to IC50 for chloroquine resistant Plasmodium falciparum K1 erythrocytic stage. The class given is toxicity. To be noted: read-out: Ratio IC50.
A short description of data set [4]: Selectivity index, ratio of IC50 for rat L6 cells to IC50 for Trypanosoma cruzi Tulahuen strain C2C4 amastigote forms harboring LacZ infected in rat L6 cells. Particulars: read-out: Ratio IC50. The class given is toxicity, cell-based.
Data set [5] relates to Plasmodium falciparum. Description: Antiplasmodial activity against chloroquine resistant Plasmodium falciparum K1 erythrocytic stage assessed as reduction in [3H]hypoxanthine incorporation after 48 hrs by liquid scintillation counting assay. The class given is functional.
The subject of data set [6] is Leishmania donovani. Description: Antileishmanial activity against Leishmania donovani MHOM/SD/62/ISCL2D axenic amastigotes after 72 hrs by alamar blue assay. The class given is functional.
In data set [7] the test system is Trypanosoma cruzi. In words: Antitrypanosomal activity against Trypanosoma cruzi Tulahuen strain C2C4 amastigote forms harboring LacZ infected in rat L6 cells after 96 hrs by CPRG/Nonidet reagent based photometric method. The class given is functional, cell-based. Particulars: Tulahuen strain C2C4, L6, 96 h.
Data set [8] can be described thus: Selectivity index, ratio of IC50 for rat L6 cells to IC50 for Leishmania donovani MHOM/SD/62/ISCL2D axenic amastigotes. Format: toxicity. Particulars: read-out: Ratio IC50.
Data set [9] is described as follows: Selectivity index, ratio of IC50 for rat L6 cells to IC50 for bloodstream forms of Trypanosoma brucei rhodesiense STIB900 trypomastigotes. The class given is toxicity. To be noted: read-out: Ratio IC50.

The IC50 is the midpoint of a concentration-inhibition curve.

Where only a bound is given, the exact number is not on record here.

For the compound `Nc1nc(Cl)c2ccn([C@@H]3O[C@H](CO)[C@@H](O)[C@H]3O)c2n1`, the half-inhibitory concentration (IC50) in data set [1] turned out to be 163 µM; in [2], 0.13 µM; in [5] it was 68 µM; in [6], 0.06 µM; in [7], 3.4 µM. Besides, the selectivity ratio is 2 in data set [3], 48 in data set [4], 2720 in data set [8] and 1250 in data set [9].

`CNc1nc(N)nc2c1ncn2[C@@H]1O[C@H](C)[C@@H](O)[C@H]1O`: the IC50 in [1] stood at 211 µM; in [2], 127 µM; in data set [5], 19 µM; in data set [6], 326 µM; in data set [7], 15 µM. Moreover, the selectivity ratio worked out at 11 in data set [3], 14 in [4], 0.6 in data set [8] and 2 in data set [9].

`COc1nc(I)nc2c1ncn2[C@@H]1O[C@H](C)[C@@H](O)[C@H]1O`: the IC50 in data set [1] is 158 µM; in [2], 108 µM; in [5], 65 µM; in [6], 126 µM; in [7] it was 113 µM. The selectivity ratio came out at 2 in [3], 1 in data set [4], 1 in data set [8] and 2 in [9].

With `Nc1nc([Se][Se]c2nc(N)nc3c2ccn3[C@@H]2O[C@H](CO)[C@@H](O)[C@H]2O)c2ccn([C@@H]3O[C@H](CO)[C@@H](O)[C@H]3O)c2n1`, the IC50 is 24 µM in data set [1]; 9.6 µM in data set [2]; 20.5 µM in data set [5]; more than 145 µM in data set [6]; 21 µM in data set [7]. Moreover, the selectivity ratio in [3] is 1; in data set [4], 1; in data set [8] it was less than 0.2; in data set [9], 3.

`CNc1nc(N)nc2c1ncn2[C@@H]1O[C@H](CSC)[C@@H](O)[C@H]1O`: the IC50 in data set [1] was 165 µM; in data set [2], 290 µM; in data set [5] it was 29 µM; in data set [6], more than 318 µM; in data set [7] it was 22 µM. Further, the selectivity ratio in [3] worked out at 6; in [4], 8; in data set [8] it was 0.5; in [9], 0.6.

In the case of `CNc1nc(NC)c2ncn([C@@H]3O[C@H](C)[C@@H](O)[C@H]3O)c2n1`, the IC50 in data set [1] is 187 µM; in [2] it was more than 340 µM; in [5], more than 170 µM; in data set [6], more than 340 µM; in data set [7], 109 µM. Also, the selectivity ratio in [3] is less than 1; in data set [4], 2; in [8], less than 0.6; in data set [9], less than 0.6.

For `Nc1nc2c(ccn2[C@@H]2O[C@H](CO)[C@@H](O)[C@H]2O)c(=S)[nH]1`, the concentration for half-maximal inhibition (IC50) is 185 µM in data set [1]; 61 µM in data set [2]; more than 168 µM in data set [5]; more than 335 µM in data set [6]; 71 µM in data set [7]. The selectivity ratio was less than 1 in data set [3], 3 in data set [4], less than 0.6 in data set [8] and 3 in data set [9].

Consider `CNc1nc(Cl)c2ncn([C@@H]3O[C@H](C)[C@@H](O)[C@H]3O)c2n1`, for which the half-inhibitory concentration (IC50) in data set [1] is 175 µM; in data set [2], 230 µM; in data set [5], 150 µM; in data set [6] it was more than 335 µM; in [7], 35 µM. For the same compound, the selectivity ratio in data set [3] was 1; in data set [4], 5; in data set [8] it was less than 0.5; in data set [9] it was 0.8.
